Reference: the supplement of paper PMC10307832

Experiments:
Experiment in all cases: relative viability (nuclei count vs DMSO), 5 days (fraction); higher = more cells survive
Cediranib + Trametinib = compound: COc1cc2c(Oc3ccc4[nH]c(C)cc4c3F)ncnc2cc1OCCCN1CCCC1 [Cediranib] + CC(=O)Nc1cccc(-n2c(=O)n(C3CC3)c(=O)c3c(Nc4ccc(I)cc4F)n(C)c(=O)c(C)c32)c1 [Trametinib] (partner 0.02 µM)
Summary of the method: (§1)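 Relative viability is defined as nuclei in treated wells over nuclei in vehicle wells. Duplicate plates were run and medians reported. Lung cancer cell lines in 1536-well plates were dosed by pin tool one day after seeding, with one drug or with a fixed anchor-drug dose plus five library-drug doses (not always all listed) in √10 steps, and nuclei were counted after 5 days.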

Decitabine + Lapatinib = compound: Nc1ncn([C@H]2C[C@H](O)[C@@H](CO)O2)c(=O)n1 [Decitabine] + CS(=O)(=O)CCNCc1ccc(-c2ccc3ncnc(Nc4ccc(OCc5cccc(F)c5)c(Cl)c4)c3c2)o1 [Lapatinib] (partner 2 µM)
Summary of the method: as §1

[1] = compound: O=C(C[C@H]1NCCC[C@@H]1O)Cn1cnc2cc(Br)c(Cl)cc2c1=O (racemic) [Halofuginone] + CC(=O)c1c(C)c2cnc(Nc3ccc(N4CCNCC4)cn3)nc2n(C2CCCC2)c1=O [Palbociclib] (partner 0.5 µM)
Summary of the method: as §1

[2] = compound: O=C(C[C@H]1NCCC[C@@H]1O)Cn1cnc2cc(Br)c(Cl)cc2c1=O (racemic) [Halofuginone] + C[C@]1(O)C[C@@H](c2nc(-c3ccc4ccc(-c5ccccc5)nc4c3)c3c(N)nccn32)C1 [Linsitinib] (partner 1 µM)
Summary of the method: as §1

Cell Line	relative viability (Cediranib + Trametinib; first compound 0.04 µM)	relative viability (Cediranib + Trametinib; first compound 0.1265 µM)	relative viability (Cediranib + Trametinib; first compound 0.4 µM)	relative viability (Cediranib + Trametinib; first compound 1.265 µM)	relative viability (Cediranib + Trametinib; first compound 4 µM)	relative viability (Decitabine + Lapatinib; first compound 0.04 µM)	relative viability (Decitabine + Lapatinib; first compound 0.1265 µM)	relative viability (Decitabine + Lapatinib; first compound 0.4 µM)	relative viability (Decitabine + Lapatinib; first compound 1.265 µM)	relative viability (Decitabine + Lapatinib; first compound 4 µM)	relative viability ([1]; first compound 0.001 µM)	relative viability ([1]; first compound 0.003162 µM)	relative viability ([1]; first compound 0.01 µM)	relative viability ([1]; first compound 0.03162 µM)	relative viability ([1]; first compound 0.1 µM)	relative viability ([2]; first compound 0.001 µM)	relative viability ([2]; first compound 0.003162 µM)	relative viability ([2]; first compound 0.01 µM)	relative viability ([2]; first compound 0.03162 µM)	relative viability ([2]; first compound 0.1 µM)
HCC-366	0.384	0.404	0.301	0.327	0.398	0.938	1.07	0.214	0.164	0.113	0.363	0.472	0.351	0.358	0.14	0.638	0.69	0.692	0.618	0.126
HCC-827	0.6	0.791	0.529	0.539	0.497		0.168	0.187	0.187	0.2	0.485	0.459	0.491	0.56	0.478	0.968	0.983	0.978	1.02	0.892
HOP-62	0.442	0.404	0.346	0.387	0.42	0.962	0.604	0.348	0.1	0.14	0.435	0.427	0.426	0.375	0.227	1.1	1.07	1.09	0.95	0.302
IA-LM						0.503	0.306	0.212	0.169	0.178						0.735	0.78	0.547	0.775	0.434
LC-2-ad	0.94	0.915	0.901	0.995	0.841	0.676	0.775	0.317	0.245	0.37	0.504	0.505	0.456	0.478	0.411	0.843	0.796	0.763	0.818	0.264
LCLC-97TM1	0.196		0.207	0.187	0.214	0.576	0.335	0.173	0.169	0.126	0.3	0.194	0.257	0.239	0.219	0.209	0.189	0.187	0.179	0.163
LCLC-103H	0.73	0.664	0.676	0.747	0.7						0.492	0.491	0.462	0.467	0.523	1.12	1.48	1.04	1.09	1.01
LK-2	0.889	0.573	0.668	0.742	0.643	0.784	0.991	0.75	0.521	0.402	0.736	0.714	0.691	0.777	0.552	0.722	0.656	0.433	0.609	0.452
LOU-NH91	0.841	0.808	0.796	0.751	0.786	0.764	0.712	0.649	0.689	0.661	0.567	0.515	0.494	0.492	0.589	0.97	0.977	0.97	0.977	0.842
LU99A	0.553		0.544	0.515	0.568	1.01	1.08	1.19	0.866	0.683	0.444	0.466	0.393	0.401	0.41	0.634	0.477	0.522	0.515	0.45
NCI-H441	0.631	0.504	0.408	0.483	0.399						0.254	0.241	0.206	0.241	0.152	0.6	0.651	0.525	0.561	0.353
NCI-H522	0.785	0.675	0.755	0.864	0.756						0.861	0.756	0.829	1.04	0.95					
NCI-H596	0.767	0.778	0.73	0.771	0.918	1.12	1.06	0.576	0.954	0.783						1.13	1.04	1.07	1.12	0.732
NCI-H1299						0.972	0.989	0.953	0.918	0.855						1.01	1.23	0.972	0.955	0.732
NCI-H1563						0.922	1.02	0.87	1.07	0.8						1.3	1.3	0.963	0.636	0.603
NCI-H1648	0.442	0.499	0.539	0.462	0.495						0.28	0.322	0.178	0.261	0.249					
NCI-H1650	0.574	0.606	0.541	0.54	0.393	0.595	0.649	0.217	0.494	0.372	0.265	0.303	0.323	0.323	0.173					
NCI-H1703						0.698	0.652	0.484	0.36	0.274						0.944	1.03	0.617	0.559	0.353
NCI-H2170	0.993		0.935	0.81	0.986	0.281	0.267	0.268	0.251	0.249	0.382	0.392	0.358	0.401	0.373					
NCI-H2342	0.841	0.897	0.849	0.877	0.812						0.503	0.578	0.511	0.512	0.527					
SW 900	0.76	1.08	0.636	0.83	0.885						0.626	0.483		0.622	0.215					
